US11419953B2, “Reduced metastable complex macrocyclic contrast agents” (INVENTURE, LLC, priority 2020, dated 2022)

Columns and labels:
[1] = Free Gd3+ release in vitro, comparative data (Example 6); type: physicochemical; settings: after 30 minutes at standard dosing
[2] = commercial product stored in bottle; cited from earlier work
[3] = cited from earlier work

In Vitro PPM (free GAD released) [1] | Structure (SMILES) | in-bottle measured free gadolinium [2] | stability lower at pH 7.4 than for the fully deprotonated complex [3]
1,204 +/− 3.9 PPM | CNC[C@H](O)[C@@H](O)[C@H](O)[C@H](O)CO.O=C([O-])CN1CCN(CC(=O)[O-])CCN(CC(=O)O)CCN(CC(=O)[O-])CC1.[Gd+3] [DOTAREM, gadoterate meglumine] |  | 
 | O=C([O-])CN1CCN(CC(=O)[O-])CCN(CC(=O)[O-])CCN(CC(=O)[O-])CC1.[Gd+3] [Gd-DOTA] | 10^13 Gd3+ ions in 100 ml of GCA product | 7 orders of magnitude
